# Measured values reported in ChEMBL document CHEMBL5550200, “Back-Pocket Optimization of 2-Aminopyrimidine-Based Macrocycles Leads to Potent EPHA2/GAK Kinase Inhibitors” (J Med Chem, 2024).
# Assays:
# [1] = target: T1, Ephrin type-A receptor 2 (Homo sapiens, UniProt P29317)
# Description: Induction of stabilization of recombinant EPHA2 (D596 to G900 residues) (unknown origin) expressed in Escherichia coli rosetta BL21(D3)-R3-pRARE2 competent cells assessed as change in melting temperature by differential scanning fluorimetry assay
# [2] = target: T1, Ephrin type-A receptor 2; remark: listed apart in the source
# Description: Binding affinity to recombinant his tagged EPHA2 (D596 to G900 residues) (unknown origin) expressed in Escherichia coli rosetta BL21(D3)-R3-pRARE2 competent cells assessed as dissociation constant by surface plasmon resonance method
# [3] = target: T2, Fibroblast growth factor receptor 1 (Homo sapiens, UniProt P11362)
# Target sequence in this assay (P11362 22-822 limits assumed): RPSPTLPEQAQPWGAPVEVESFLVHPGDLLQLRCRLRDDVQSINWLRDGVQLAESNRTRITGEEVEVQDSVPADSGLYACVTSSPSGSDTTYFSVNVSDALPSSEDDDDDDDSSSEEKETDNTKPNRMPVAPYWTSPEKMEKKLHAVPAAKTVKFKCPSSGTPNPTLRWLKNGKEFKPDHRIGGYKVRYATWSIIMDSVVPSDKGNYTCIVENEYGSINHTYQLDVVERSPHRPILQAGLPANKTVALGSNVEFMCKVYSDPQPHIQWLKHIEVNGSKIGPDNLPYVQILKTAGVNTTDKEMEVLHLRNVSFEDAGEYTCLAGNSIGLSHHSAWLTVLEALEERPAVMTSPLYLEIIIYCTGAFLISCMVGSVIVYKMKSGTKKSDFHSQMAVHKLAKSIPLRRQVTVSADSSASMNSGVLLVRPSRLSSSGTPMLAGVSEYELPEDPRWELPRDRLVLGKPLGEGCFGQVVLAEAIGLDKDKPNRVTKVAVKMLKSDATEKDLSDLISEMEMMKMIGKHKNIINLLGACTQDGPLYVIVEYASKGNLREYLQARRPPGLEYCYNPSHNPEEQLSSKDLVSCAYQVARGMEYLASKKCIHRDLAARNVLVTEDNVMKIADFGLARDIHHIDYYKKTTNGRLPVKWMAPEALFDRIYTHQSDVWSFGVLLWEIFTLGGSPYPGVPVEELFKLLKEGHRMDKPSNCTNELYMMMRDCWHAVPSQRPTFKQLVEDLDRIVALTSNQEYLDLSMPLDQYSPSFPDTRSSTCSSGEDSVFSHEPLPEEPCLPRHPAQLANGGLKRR
# Description: Induction of stabilization of recombinant FGFR1 (unknown origin) assessed as change in melting temperature by differential scanning fluorimetry assay
# [4] = target: Ephrin type-A receptor 5 (Homo sapiens) (UniProt P54756)
# Description: Induction of stabilization of recombinant EPHA5 (unknown origin) assessed as change in melting temperature by differential scanning fluorimetry assay
# [5] = target: Fibroblast growth factor receptor 2 (Homo sapiens) (UniProt P21802)
# Chain of Fibroblast growth factor receptor 2 (Homo sapiens) (P21802 22-821 limits assumed): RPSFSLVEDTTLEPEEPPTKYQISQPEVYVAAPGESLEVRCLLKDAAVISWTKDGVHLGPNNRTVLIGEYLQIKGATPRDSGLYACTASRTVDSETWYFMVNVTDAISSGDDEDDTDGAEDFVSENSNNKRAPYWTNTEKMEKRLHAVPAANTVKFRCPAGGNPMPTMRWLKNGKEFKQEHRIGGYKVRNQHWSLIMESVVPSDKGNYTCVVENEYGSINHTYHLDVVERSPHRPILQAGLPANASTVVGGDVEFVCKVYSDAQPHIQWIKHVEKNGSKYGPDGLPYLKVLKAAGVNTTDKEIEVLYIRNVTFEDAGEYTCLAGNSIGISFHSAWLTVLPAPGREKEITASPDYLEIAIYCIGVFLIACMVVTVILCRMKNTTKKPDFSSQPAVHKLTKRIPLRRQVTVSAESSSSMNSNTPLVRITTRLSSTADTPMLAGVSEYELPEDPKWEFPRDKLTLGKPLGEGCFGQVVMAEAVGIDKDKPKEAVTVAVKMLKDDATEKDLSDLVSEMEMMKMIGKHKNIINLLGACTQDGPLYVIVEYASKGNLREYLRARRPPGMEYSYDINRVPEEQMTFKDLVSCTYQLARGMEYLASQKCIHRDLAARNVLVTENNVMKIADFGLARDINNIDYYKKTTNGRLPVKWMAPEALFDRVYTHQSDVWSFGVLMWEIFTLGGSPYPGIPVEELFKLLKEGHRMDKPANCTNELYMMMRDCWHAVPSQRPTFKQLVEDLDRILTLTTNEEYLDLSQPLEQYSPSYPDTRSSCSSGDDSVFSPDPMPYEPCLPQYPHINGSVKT
# Description: Induction of stabilization of recombinant FGFR2 (unknown origin) assessed as change in melting temperature by differential scanning fluorimetry assay
# [6] = target: Ephrin type-A receptor 7 (Homo sapiens) (UniProt Q15375); assay: Induction of stabilization of recombinant EPHA7 (unknown origin) assessed as change in melting temperature by differential scanning fluorimetry assay
# Chain of Ephrin type-A receptor 7 (Homo sapiens) (Q15375 28-998 limits assumed): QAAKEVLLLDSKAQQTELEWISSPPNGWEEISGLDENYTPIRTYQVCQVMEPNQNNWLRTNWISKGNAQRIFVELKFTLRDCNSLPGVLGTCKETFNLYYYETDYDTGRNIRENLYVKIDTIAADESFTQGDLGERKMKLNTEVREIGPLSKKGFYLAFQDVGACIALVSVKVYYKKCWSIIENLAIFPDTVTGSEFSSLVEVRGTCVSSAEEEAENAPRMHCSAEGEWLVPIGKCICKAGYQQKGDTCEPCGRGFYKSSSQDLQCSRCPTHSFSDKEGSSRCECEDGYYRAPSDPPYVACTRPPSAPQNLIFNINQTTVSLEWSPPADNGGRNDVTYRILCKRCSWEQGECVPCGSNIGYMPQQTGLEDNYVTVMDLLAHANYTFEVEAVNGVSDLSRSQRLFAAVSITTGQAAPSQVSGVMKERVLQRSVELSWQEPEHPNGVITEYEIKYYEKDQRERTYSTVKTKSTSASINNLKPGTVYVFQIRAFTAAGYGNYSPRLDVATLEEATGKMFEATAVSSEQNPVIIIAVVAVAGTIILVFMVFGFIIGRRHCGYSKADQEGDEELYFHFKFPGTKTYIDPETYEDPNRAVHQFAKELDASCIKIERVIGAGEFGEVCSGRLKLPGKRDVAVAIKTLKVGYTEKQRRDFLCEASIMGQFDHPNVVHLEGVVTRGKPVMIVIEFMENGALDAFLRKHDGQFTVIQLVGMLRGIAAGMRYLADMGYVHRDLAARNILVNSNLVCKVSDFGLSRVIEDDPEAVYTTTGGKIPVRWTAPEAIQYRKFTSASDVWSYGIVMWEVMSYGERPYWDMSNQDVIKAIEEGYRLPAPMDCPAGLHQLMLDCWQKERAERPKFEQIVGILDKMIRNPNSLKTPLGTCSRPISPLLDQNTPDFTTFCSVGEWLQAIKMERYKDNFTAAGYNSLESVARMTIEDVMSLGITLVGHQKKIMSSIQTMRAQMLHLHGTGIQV
# [7] = target: T3, Vascular endothelial growth factor receptor 1 (Homo sapiens, UniProt P17948); assay: Induction of stabilization of recombinant FLT1 (unknown origin) assessed as change in melting temperature by differential scanning fluorimetry assay
# T3 sequence (P17948 whole entry): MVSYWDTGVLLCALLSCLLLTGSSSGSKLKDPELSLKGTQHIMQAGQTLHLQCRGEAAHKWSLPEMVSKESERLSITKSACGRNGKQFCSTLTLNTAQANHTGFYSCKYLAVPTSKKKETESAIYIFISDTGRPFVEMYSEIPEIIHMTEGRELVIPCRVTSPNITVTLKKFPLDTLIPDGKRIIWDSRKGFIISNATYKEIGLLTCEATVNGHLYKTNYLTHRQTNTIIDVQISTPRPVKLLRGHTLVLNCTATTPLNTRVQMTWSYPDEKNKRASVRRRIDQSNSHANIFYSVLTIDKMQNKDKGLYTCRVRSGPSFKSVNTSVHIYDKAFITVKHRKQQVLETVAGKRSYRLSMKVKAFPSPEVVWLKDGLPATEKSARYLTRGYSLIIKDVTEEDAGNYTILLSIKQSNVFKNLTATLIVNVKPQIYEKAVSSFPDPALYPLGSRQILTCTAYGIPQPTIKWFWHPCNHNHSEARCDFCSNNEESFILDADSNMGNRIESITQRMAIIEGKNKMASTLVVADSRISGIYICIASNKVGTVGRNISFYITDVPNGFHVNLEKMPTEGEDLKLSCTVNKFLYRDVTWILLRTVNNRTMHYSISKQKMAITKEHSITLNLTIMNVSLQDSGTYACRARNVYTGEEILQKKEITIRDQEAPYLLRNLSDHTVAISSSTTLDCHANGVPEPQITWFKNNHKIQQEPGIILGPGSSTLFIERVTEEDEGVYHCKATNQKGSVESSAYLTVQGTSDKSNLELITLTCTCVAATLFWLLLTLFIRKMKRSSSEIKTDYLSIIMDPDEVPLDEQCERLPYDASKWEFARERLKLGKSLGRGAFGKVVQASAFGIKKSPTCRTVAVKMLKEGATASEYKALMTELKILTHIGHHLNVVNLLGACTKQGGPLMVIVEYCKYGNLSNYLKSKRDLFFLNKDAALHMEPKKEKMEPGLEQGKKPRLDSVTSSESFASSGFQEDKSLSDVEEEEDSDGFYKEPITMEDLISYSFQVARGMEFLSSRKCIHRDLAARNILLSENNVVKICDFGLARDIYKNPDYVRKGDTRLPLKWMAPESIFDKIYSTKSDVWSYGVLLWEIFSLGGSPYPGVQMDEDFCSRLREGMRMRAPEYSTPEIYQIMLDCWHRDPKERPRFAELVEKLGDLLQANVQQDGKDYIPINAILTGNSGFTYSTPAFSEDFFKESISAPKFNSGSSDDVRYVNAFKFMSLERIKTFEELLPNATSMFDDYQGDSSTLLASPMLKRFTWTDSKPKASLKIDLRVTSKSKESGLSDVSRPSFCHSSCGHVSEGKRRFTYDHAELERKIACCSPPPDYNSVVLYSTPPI
# [8] = target: T4, Ephrin type-B receptor 3 (Homo sapiens) (UniProt P54753); assay: Induction of stabilization of recombinant EPHB3 (unknown origin) assessed as change in melting temperature by differential scanning fluorimetry assay
# T4 sequence (whole entry): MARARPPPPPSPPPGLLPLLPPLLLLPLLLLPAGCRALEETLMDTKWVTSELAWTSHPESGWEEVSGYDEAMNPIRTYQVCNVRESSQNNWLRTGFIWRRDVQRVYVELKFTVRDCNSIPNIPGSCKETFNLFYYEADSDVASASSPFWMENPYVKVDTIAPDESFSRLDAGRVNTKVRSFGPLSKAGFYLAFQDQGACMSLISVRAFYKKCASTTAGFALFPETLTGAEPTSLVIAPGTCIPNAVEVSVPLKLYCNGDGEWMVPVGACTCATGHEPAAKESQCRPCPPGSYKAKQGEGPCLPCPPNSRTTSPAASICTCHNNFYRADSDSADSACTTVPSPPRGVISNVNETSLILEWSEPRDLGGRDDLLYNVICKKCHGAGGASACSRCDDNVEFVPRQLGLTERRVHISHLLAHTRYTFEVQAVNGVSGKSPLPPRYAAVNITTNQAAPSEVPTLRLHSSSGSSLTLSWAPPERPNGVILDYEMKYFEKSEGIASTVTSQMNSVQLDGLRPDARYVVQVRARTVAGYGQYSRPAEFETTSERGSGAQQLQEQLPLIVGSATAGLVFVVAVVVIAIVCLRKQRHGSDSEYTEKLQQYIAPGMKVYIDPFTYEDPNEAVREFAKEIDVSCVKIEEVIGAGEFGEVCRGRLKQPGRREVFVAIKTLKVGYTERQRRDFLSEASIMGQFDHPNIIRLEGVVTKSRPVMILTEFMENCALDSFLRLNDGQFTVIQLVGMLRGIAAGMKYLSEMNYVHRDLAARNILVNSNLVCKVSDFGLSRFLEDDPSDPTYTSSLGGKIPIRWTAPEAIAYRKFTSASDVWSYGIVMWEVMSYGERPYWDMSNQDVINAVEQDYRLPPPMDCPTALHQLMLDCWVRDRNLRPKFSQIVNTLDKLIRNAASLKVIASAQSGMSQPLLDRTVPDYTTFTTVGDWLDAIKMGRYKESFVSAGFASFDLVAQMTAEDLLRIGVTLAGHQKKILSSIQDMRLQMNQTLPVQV
# [9] = tested on: Huh-7; assay: Cytotoxicity against human Huh-7 cells assessed as reduction in cell viability by alamar blue reagent based analysis; assay type: functional
# [10] = tested on: dengue virus type 2; assay: Antiviral activity against DENV-2 New Guinea C infected in human Huh-7 cells assessed as reduction in virus induced cytopathic effect preincubated with cells for 1 hr followed by viral infection and measured after 45 to 48 hrs by luciferase assay; assay type: functional, organism-based; conditions: for EC90: time 45-48 hrs
# [11] = target: T5, Ephrin type-A receptor 4 (Homo sapiens, UniProt P54764); assay: Induction of stabilization of recombinant EPHA4 (unknown origin) assessed as change in melting temperature by differential scanning fluorimetry assay
# T5 sequence (P54764 whole entry): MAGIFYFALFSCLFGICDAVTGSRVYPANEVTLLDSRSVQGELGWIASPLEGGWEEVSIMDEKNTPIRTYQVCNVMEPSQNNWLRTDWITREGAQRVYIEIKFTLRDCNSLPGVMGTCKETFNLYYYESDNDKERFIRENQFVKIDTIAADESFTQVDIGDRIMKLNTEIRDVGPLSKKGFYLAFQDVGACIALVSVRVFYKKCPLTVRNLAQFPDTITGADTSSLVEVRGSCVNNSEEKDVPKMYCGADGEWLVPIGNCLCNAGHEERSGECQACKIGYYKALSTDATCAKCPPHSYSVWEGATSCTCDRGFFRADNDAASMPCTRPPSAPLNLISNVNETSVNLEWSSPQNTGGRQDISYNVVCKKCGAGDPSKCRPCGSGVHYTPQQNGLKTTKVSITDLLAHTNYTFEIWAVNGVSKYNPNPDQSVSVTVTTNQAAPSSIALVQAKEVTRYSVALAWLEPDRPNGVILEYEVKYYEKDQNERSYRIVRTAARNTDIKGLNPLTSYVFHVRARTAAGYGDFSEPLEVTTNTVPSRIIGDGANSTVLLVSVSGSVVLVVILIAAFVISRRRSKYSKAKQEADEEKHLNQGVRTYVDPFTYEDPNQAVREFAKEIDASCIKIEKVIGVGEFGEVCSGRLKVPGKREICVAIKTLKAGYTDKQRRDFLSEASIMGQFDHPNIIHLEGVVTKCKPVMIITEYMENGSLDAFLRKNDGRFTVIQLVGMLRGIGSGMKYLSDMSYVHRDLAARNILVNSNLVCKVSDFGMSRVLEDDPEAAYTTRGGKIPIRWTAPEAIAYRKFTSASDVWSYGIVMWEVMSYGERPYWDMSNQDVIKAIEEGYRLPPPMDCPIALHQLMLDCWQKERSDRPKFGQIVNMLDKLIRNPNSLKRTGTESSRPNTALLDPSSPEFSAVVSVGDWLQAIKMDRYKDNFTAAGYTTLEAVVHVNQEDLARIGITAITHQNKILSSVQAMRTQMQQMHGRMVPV
# [12] = target: T6, Ephrin type-B receptor 1 (Homo sapiens) (UniProt P54762); assay: Induction of stabilization of recombinant EPHB1 (unknown origin) assessed as change in melting temperature by differential scanning fluorimetry assay
# T6 sequence (whole entry): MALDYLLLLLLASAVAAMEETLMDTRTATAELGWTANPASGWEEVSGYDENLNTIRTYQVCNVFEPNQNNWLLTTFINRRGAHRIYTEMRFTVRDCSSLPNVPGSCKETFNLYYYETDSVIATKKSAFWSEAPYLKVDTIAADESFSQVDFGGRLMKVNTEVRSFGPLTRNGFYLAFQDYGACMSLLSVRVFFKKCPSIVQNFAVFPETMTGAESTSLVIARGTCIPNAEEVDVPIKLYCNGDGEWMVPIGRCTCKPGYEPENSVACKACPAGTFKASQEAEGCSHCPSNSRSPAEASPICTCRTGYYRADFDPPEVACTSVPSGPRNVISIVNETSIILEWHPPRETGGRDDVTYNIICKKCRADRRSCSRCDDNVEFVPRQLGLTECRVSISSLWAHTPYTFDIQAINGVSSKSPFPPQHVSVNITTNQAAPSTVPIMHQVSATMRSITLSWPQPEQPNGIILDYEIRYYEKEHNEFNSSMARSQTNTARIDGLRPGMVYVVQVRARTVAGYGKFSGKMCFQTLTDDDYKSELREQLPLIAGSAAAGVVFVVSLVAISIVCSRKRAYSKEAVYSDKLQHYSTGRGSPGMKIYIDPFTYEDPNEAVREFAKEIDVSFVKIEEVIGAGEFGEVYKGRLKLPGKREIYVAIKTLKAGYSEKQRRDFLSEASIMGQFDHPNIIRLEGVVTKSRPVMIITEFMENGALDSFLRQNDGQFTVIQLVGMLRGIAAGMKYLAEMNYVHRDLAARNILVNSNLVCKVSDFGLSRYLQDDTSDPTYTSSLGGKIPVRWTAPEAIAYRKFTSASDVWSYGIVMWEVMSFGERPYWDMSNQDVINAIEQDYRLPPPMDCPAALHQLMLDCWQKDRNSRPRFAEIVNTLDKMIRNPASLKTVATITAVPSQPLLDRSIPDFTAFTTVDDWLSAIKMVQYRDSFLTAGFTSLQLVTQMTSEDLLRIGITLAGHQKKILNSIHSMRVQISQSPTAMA
# [13] = target: Tyrosine-protein kinase ABL1 (Homo sapiens, UniProt P00519); assay: Inhibition of full length ABL1 (unknown origin) expressed in HEK293T cells using NanoBRET NanoGlo substrate incubated for 2 hrs in presence of K4 tracer by NanoBRET assay; assay type: cell-based
# [14] = target: T2, Fibroblast growth factor receptor 1; assay: Inhibition of full length FGFR1 (unknown origin) expressed in HEK293T cells using NanoBRET NanoGlo substrate incubated for 2 hrs in presence of K10 tracer by NanoBRET assay; assay type: cell-based
# [15] = target: T3, Vascular endothelial growth factor receptor 1; assay: Inhibition of full length FLT1 (unknown origin) expressed in HEK293T cells using NanoBRET NanoGlo substrate incubated for 2 hrs in presence of K9 tracer by NanoBRET assay; assay type: cell-based
# [16] = target: T5, Ephrin type-A receptor 4; assay: Inhibition of full length EPHA4 (unknown origin) expressed in HEK293T cells using NanoBRET NanoGlo substrate incubated for 2 hrs in presence of K4 tracer by NanoBRET assay; assay type: cell-based
# [17] = Metabolic stability in Sprague-Dawley rat liver microsomes assessed as parent compound remaining at 10 uM measured after 60 min by HPLC analysis; assay type: ADME, Microsome; conditions: read-out: Stability
# [18] = Metabolic stability in Sprague-Dawley rat liver microsomes assessed as half life at 10 uM preincubated for 5 mins followed by NADPH regenerating system measured upto 60 min by HPLC analysis; assay type: ADME, Microsome; conditions: time < 65 min
# [19] = Solubility of the compound measured after 24 hrs by HPLC/MS analysis; assay type: physicochemical
# [20] = target: T7, Cyclin-G-associated kinase (Homo sapiens) (UniProt O14976)
# T7 sequence (whole entry): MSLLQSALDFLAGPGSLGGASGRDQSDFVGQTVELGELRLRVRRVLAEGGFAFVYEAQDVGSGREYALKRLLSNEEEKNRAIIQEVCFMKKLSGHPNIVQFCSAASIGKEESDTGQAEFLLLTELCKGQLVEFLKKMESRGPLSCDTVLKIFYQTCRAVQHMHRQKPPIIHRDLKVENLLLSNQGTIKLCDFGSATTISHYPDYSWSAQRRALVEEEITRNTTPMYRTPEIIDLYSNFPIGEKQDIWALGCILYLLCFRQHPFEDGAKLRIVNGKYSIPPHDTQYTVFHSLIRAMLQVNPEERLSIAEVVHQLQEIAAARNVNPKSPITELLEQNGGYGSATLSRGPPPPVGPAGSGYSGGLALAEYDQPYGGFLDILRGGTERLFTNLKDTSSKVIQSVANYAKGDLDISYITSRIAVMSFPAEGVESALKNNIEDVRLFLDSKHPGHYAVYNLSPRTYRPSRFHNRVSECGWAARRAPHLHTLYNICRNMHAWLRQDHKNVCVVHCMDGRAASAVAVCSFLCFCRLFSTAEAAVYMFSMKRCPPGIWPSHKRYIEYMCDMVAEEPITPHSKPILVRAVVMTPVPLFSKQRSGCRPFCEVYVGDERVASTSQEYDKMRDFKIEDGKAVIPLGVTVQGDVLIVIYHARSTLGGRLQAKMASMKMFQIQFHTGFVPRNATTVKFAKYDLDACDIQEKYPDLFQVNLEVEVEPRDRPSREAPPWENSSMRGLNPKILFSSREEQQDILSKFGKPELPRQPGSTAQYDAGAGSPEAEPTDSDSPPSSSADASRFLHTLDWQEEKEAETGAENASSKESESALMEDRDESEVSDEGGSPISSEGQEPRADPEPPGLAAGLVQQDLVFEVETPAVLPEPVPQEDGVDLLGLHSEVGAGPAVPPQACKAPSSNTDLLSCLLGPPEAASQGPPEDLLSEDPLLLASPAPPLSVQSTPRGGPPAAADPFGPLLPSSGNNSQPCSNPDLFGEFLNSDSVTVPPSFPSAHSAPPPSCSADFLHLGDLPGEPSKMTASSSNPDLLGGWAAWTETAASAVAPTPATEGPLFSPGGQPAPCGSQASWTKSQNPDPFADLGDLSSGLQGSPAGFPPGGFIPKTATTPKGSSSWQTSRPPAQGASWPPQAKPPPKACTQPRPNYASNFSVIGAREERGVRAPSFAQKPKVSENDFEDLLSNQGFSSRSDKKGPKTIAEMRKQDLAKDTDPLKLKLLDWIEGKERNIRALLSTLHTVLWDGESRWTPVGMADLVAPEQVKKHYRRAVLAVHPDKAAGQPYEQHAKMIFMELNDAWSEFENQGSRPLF
# Description: Induction of stabilization of recombinant GAK (unknown origin) assessed as change in melting temperature by differential scanning fluorimetry assay
Structure (SMILES),deltaTm [1],deltaTm [3],deltaTm [4],deltaTm [5],deltaTm [6],deltaTm [7],deltaTm [8],CC50 [9],EC50 [10],EC90 [10],deltaTm [11],deltaTm [12],further results
CCNc1nc(Nc2cccc(S(=O)(=O)NC)c2)ncc1-c1ccc(F)c(OC)c1,4.2 K,,,,,,,,,,,,Kd [2]: Not Active
COCCOc1ccc2cc1S(=O)(=O)NCCCNc1nc(ncc1-c1ccc(F)c(OC)c1)N2,,2.5 K,5.4 K,4.5 K,1 K,1.8 K,3.1 K,> 10 µM,> 10 µM,> 10 µM,4.5 K,2.6 K,
COc1cc(-c2cnc3nc2NCCCNS(=O)(=O)c2cc(ccc2OC)N3)ccc1F,,2 K,4.7 K,3.4 K,1 K,1.3 K,1.6 K,> 10 µM,> 10 µM,> 10 µM,4.4 K,3.1 K,
O=C(Nc1ccccc1Cl)c1cnc2ccc(C3CCNCC3)cn12,,,,,,,,> 10 µM,6.5 µM,> 10 µM,,,EC50 [13]: 49 µM; EC50 [14]: > 50 µM; EC50 [15]: > 50 µM; EC50 [16]: 0.048 µM
COc1cc(-c2cnc3nc2NCCCNS(=O)(=O)c2cccc(c2)N3)ccc1Br,,1.8 K,5 K,2.4 K,0.1 K,2.6 K,4 K,> 10 µM,5.3 µM,9.8 µM,3.2 K,2.8 K,"remaining at 1 h, 10 µM [17]: 87%; half-life at 10 µM [18]: 4.6 h; solubility at 24 h [19]: 2.24 µg/mL"
COc1cc(-c2cnc3nc2NCCCNS(=O)(=O)c2cccc(c2)N3)ccc1F,,3.3 K,5.4 K,4.4 K,0.3 K,6.3 K,5.6 K,> 10 µM,> 10 µM,> 10 µM,3.6 K,4.3 K,half-life at 10 µM [18]: 6.6 h
CSc1cc(-c2cnc3nc2NCCCNS(=O)(=O)c2cccc(c2)N3)ccc1F,6.9 K,3.3 K,4.3 K,4.1 K,2 K,4.7 K,4.3 K,,,,3.4 K,3 K,deltaTm [20]: 7.8 K
O=S1(=O)NCCCNc2nc(ncc2-c2cc(Cl)c(Cl)cc2F)Nc2cccc1c2,9.5 K,4.5 K,5.6 K,5.7 K,0.4 K,5.4 K,5.4 K,,,,3.8 K,3.5 K,deltaTm [20]: 6.5 K
